One block for each compound: values may come before it.
Experiments:
[1] = target: T1, FP receptors (Swiss 3T3 cells expressing FP receptors) (Mus musculus, UniProt P43117); assay: FP receptor-mediated phosphoinositide turnover assay; assay type: cell-based; conditions: Table 2; for EC50: [3H]-IPs in Swiss 3T3 cells, read-out: EC50; for % response: efficacy relative to standard
T1 construct: endogenous in cells; host or cells: Swiss 3T3 cells
Method: FP receptor-mediated phosphoinositide turnover assay: [^3H]Inositol phosphates ([^3H]-IPs) produced by agonist-mediated activation of phospholipase C in Swiss 3T3 cells expressing FP receptors were quantified as follows. Confluent 3T3 cells were exposed to 1.0-1.5 μCi [^3H]-myo-inositol (18.3 Ci/mmol) in 0.5 ml DMEM for 24-30 hours at 37° C. Then cells were rinsed once with DMEM/F-12 containing 10 mM LiCl, and the agonist stimulation experiment was performed in 0.5 ml of the same medium to facilitate accumulation of [^3H]-IPs. Cells were exposed to the agonist or solvent for 60 min at 37° C. (triplicate determinations), followed by aspiration of the medium and immediate addition of 1 ml of ice-cold 0.1 M formic acid. The plates were kept cold and then frozen. Samples frozen up to one week were thawed prior to chromatographic separation of radiolabeled components. The cell lysates (0.9 ml) were loaded on columns packed with approximately 1 ml AG 1-X8 anion exchange resin. The elution procedure consisted of a wash with 10 ml of H2O, then 8 ml of 50 mM ammonium formate, and finally 4 ml of 1.2 M ammonium formate with 0.1 M formic acid, which was collected in a scintillation vial. To this eluate was added 15 ml of scintillation fluid and the total [^3H]-IPs determined by scintillation counting on a beta-counter. Data were analyzed by the sigmoidal fit function of the Origin Scientific Graphics software (Microcal Software, Northampton, Mass.) to determine agonist potency (EC50 value) and efficacy, relative to the standard cloprostenol.

[2] = target: T2, FP receptors (Bos taurus, UniProt P37289); assay: FP receptor binding assay ([3H]PGF2α, bovine corpus luteum membranes); conditions: Table 2; FP receptor binding
T2 construct: Washed total particulate bovine corpus luteum membranes; from tissue; host or cells: bovine corpus luteum membranes
Method: Non-specific binding was defined with 1-10 μM unlabeled PGF2α or fluprostenol. The assays were terminated by vacuum filtration (using Whatman GF/B glass fiber filter previously soaked in 0.3% polyethyleneimine) and the data analyzed by a non-linear, iterative, curve-fitting computer program.

[3] = system: eyelash; conditions: in some instances, U.S. Pat. No. 6,262,105; cited from earlier work
[4] = system: eyelash; assay: Eyelash change from baseline evaluated by photographs in clinical studies; assay type: in vivo, patients; conditions: for Percent of Patients with Eyelash Change: Table 3; for Percent of Patients with Eyelash Change: Change Reported / Percent of Patients with Eyelash Change: Color Change / Percent of Patients with Eyelash Change: Density Change / Percent of Patients with Eyelash Change: Length Change / Percent of Patients with Eyelash Change: Thickness Change: Table 4; for change in eyelash color, length, density and/or thickness (in words): Travoprost 0.0015% and 0.004%, latanoprost 0.005% compared to travoprost
Text: Eyelash photographs of each eye were taken at determination of patient eligibility […] (baseline) and Months 1.5, 3, 4.5 and 6 in four clinical studies. Additional photographs were taken at Months 9 and 12 in two clinical studies. Eyelash change was classified using the following categories: change in eyelash color, increase in eyelash length, increase in eyelash density and increase in eyelash thickness. Two independent readers evaluated the photographs subjectively for any change from baseline in eyelash characteristics.

T2 sequence (P37289 whole entry): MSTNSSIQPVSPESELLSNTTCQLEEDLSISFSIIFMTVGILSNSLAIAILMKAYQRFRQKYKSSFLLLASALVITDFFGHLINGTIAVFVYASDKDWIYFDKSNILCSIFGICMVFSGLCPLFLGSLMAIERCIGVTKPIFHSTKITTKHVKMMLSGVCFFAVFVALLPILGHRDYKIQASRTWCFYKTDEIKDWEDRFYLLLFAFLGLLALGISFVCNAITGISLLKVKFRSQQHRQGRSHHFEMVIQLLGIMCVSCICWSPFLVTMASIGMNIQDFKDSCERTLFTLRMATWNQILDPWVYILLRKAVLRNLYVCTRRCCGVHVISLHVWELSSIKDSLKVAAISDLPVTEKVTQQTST
T1 sequence (P43117 whole entry): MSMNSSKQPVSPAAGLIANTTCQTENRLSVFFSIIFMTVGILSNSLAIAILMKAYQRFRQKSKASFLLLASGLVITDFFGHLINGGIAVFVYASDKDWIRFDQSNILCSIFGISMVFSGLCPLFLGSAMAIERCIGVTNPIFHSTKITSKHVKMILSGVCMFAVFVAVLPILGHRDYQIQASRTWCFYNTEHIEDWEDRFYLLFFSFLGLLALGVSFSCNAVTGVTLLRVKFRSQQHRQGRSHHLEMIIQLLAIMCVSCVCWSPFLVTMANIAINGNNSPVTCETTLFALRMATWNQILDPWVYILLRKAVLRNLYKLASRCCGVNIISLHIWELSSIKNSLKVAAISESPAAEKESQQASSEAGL

Structure (SMILES): O=C(O)CCCCCC[C@@H]1[C@@H](/C=C/[C@@H](O)COc2cccc(Cl)c2)[C@H](O)C[C@@H]1O [Compound 86]
EC50 [1]: 4.92 nM | % response [1]: 100% | Ki [2]: 93 nM

Structure (SMILES): CC(C)OC(=O)CCC/C=C\C[C@@H]1[C@@H](CC[C@@H](O)CCc2ccccc2)[C@H](O)C[C@@H]1O [Latanoprost]
eyelash growth in glaucoma patients (in words) [3]: increased eyelash growth | Percent of Patients with Eyelash Change ([4]; 0.005%): 25.8% | Percent of Patients with Eyelash Change: Change Reported ([4]; 0.005%): 25.8% | Percent of Patients with Eyelash Change: Color Change ([4]; 0.005%): 16.5% | Percent of Patients with Eyelash Change: Density Change ([4]; 0.005%): 22.2% | Percent of Patients with Eyelash Change: Length Change ([4]; 0.005%): 25.8% | Percent of Patients with Eyelash Change: Thickness Change ([4]; 0.005%): 17.5% | change in eyelash color, length, density and/or thickness (in words) [4]: greatly reduced frequency

Structure (SMILES): CC(C)OC(=O)CCC/C=C\C[C@@H]1[C@@H](/C=C/[C@@H](O)COc2cccc(C(F)(F)F)c2)[C@H](O)C[C@@H]1O [Travoprost]
Percent of Patients with Eyelash Change ([4]; 0.0015%): 48.1% | Percent of Patients with Eyelash Change ([4]; 0.004%): 61.3% | Percent of Patients with Eyelash Change: Change Reported ([4]; 0.0015%): 48.1% | Percent of Patients with Eyelash Change: Color Change ([4]; 0.0015%): 37.3% | Percent of Patients with Eyelash Change: Density Change ([4]; 0.0015%): 44.6% | Percent of Patients with Eyelash Change: Length Change ([4]; 0.0015%): 48.1% | Percent of Patients with Eyelash Change: Thickness Change ([4]; 0.0015%): 33.8% | Percent of Patients with Eyelash Change: Change Reported ([4]; 0.004%): 61.3% | Percent of Patients with Eyelash Change: Color Change ([4]; 0.004%): 47.9% | Percent of Patients with Eyelash Change: Density Change ([4]; 0.004%): 58.2% | Percent of Patients with Eyelash Change: Length Change ([4]; 0.004%): 61.1% | Percent of Patients with Eyelash Change: Thickness Change ([4]; 0.004%): 51.1% | change in eyelash color, length, density and/or thickness (in words) [4]: concentration-related change

Other lines, results leading:

EC50 [1]: 38 nM | % response [1]: 88% | Ki [2]: 730 nM
Structure (SMILES): O=C(O)CCCCCC[C@@H]1[C@@H](/C=C/[C@H](O)COc2cccc(Cl)c2)[C@H](O)C[C@@H]1O [Compound 87]

EC50 [1]: 11.6 nM | % response [1]: 99% | Ki [2]: 150 nM
Structure (SMILES): O=C(O)CCC/C=C\C[C@@H]1[C@@H](/C=C/[C@H](O)COc2cccc(C(F)(F)F)c2)[C@H](O)C[C@@H]1O [Compound 88]

EC50 [1]: 41 nM | % response [1]: 96% | Ki [2]: 260 nM
Structure (SMILES): O=C(O)CCC/C=C/C[C@@H]1[C@@H](/C=C/[C@@H](O)COc2cccc(C(F)(F)F)c2)[C@H](O)C[C@@H]1O [Compound 89]
